Assay results: patent US20240309065A1, “SHORT APOC-II MIMETIC PEPTIDES AND METHODS OF USE” (The United States of America, as represented by the …, priority 2021, published 2024)
Where a SMILES comes first, the peptide text is derived from it. Bridges are numbered along the chain shown (N, C = ends). Where no end group is shown, it is not given here. [ ]: non-standard residue; d: D form. The star is where a group is joined. R8 = C=CCCCCCC[C@@](C)(N)C(=O)O; S5 = C=CCCC[C@](C)(N)C(=O)O; dNle = CCCC[C@@H](N)C(=O)O; Nle = CCCC[C@H](N)C(=O)O; Octanoyl = CCCCCCCC(=O)*; Sar = CNCC(=O)O

Columns and labels:
LPL from bovine milk = biological target: T1, LPL from bovine milk (Bos taurus, UniProt P11151); experiment: LPL activation assay (generation of NEFA); assay type: biochemical; details: 0-10 μM peptide, 7.45 nM LPL, apoC-II deficient plasma, 37° C. for 1 hour, NEFA measured
T1 construct: 7.45 nM of LPL from bovine milk (Sigma-Aldrich); purchased Sigma-Aldrich; host or cells: bovine milk
T1 sequence (P11151 29-478): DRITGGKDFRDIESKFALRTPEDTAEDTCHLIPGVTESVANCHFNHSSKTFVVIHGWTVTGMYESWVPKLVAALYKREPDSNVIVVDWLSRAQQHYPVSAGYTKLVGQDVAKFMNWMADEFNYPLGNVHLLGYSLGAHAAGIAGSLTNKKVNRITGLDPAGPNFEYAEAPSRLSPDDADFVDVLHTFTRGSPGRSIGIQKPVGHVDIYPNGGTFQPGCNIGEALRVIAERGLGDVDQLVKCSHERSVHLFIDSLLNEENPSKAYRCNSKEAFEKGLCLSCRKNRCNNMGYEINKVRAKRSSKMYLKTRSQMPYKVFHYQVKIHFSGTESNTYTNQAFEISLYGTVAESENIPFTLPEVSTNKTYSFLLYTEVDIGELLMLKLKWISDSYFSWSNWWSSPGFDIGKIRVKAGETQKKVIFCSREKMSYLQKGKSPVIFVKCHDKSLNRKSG
Protocol: (§1) LPL activity was determined by measuring the generation of NEFA. In a 96-well plate, 0-10 μM of an apoC-II mimetic peptide, 7.45 nM of LPL from bovine milk (Sigma-Aldrich), apoC-II deficient ethylenediaminetetraacetic acid (EDTA)-plasma (diluted with PBS to a final TG concentration of 3 mg/dL), 10 IU/ml heparin, 1% bovine serum albumin (BSA) (ICN Biomedicals), and PBS (Life Technologies) were combined in a final reaction volume of 50 μL, pre-incubated on ice for 30 minutes, and incubated at 37° C. for 1 hour. NEFA were measured with a coupled enzyme reaction (FUJIFILM Wako Diagnostics), in a SpectraMax Plus 384 Microplate Reader.

Pepsin A = biological target: T2, Pepsin A (Sus scrofa, UniProt P00791); experiment: LPL activation ability following pepsin treatment; assay type: in vitro ADME; details: 1 mg/ml Pepsin A, pH 1.92, 1 hour at 37° C.; final concentration 10 µM of peptides
T2 construct: purchased Sigma Aldrich P6887-1G
T2 sequence (P00791 60-385): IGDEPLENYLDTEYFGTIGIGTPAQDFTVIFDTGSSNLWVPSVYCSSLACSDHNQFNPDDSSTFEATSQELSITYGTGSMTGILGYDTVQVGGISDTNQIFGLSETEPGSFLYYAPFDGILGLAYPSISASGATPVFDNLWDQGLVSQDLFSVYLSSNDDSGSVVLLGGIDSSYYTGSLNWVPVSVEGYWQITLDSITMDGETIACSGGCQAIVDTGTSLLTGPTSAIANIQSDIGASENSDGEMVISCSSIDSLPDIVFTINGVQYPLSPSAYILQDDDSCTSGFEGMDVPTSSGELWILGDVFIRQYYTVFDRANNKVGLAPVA
Protocol: as §1
Peptide resistance to proteolysis was also tested. Peptides at 0.1 mM concentration were incubated at 37° C. in 20 mM ammonium bicarbonate buffer at pH 8.2 with 10 μg/ml trypsin or […] Proteinase K. The amount of intact peptide was monitored over 24-hour time period by MALDI-TOF using internal standards (Bombesin, ACTH (1-17), ACTH (18-39), and Insulin) to quantify the relative amount of peptide in each sample. As shown in FIGS. 16A-16D, the tested peptides had varying degrees of resistance to trypsin and proteinase K. In addition, peptides were tested for LPL activation ability following pepsin treatment. Peptides (1 mM stock) were prepared in 5 mM TRIS, pH 8.2. […] In vitro generated NEFA were measured by the colorimetric assay.

apoC-II knockout mice = experiment: Peptide activity in vivo in apoC-II knockout mice; details: single intraperitoneal injection 5 μmole/kg, blood at 1, 3, 6 and 24 hours; for triglycerides: compared to control
Protocol: A study was performed comparing the effect of D6-PV (SEQ ID NO: 15) and SPH2S (SEQ ID NO: 5) peptides in apoC-II knockout mice. Mice were given a single intraperitoneal injection of the peptide (5 μmole/kg) and blood was collected at 1 hour, 3 hours, 6 hours and 24 hours after injection. Triglycerides, total cholesterol, and non-esterified fatty acids (NEFA) were measured.

[1] = DMPC vesicle solubilization assay; details: 0.5 mM peptides, DMPC vesicles 0.5 mg/mL in PBS pH 7.4, absorbance at 660 nm for 1 hour at 24° C.
Protocol: Tested peptides were able to solubilize DPMC vesicles (FIG. 15). […] PBS as a negative control or 1% Triton as a positive control or 0.5 mM peptides were added to homogenous DMPC (Avanti 850345C) vesicles (0.5 mg/mL) in PBS, pH 7.4. In vitro turbidity change was monitored by following the absorbance at 660 nm for 1 hour at 24° C. Absorbance over time was plotted and the areas under the curve (AOC) were calculated.

efficacy for activation of LPL (LPL from bovine milk)	Molecule	other results
did not affect LPL activation	CCCC[C@H](NC(=O)[C@H](C)NC(C)=O)C(=O)N[C@]1(C)CCCCCCC=CCCC[C@@](C)(C(=O)N[C@@H](CC(=O)O)C(=O)N[C@@H](CCC(N)=O)C(=O)N[C@H](C(=O)N[C@@H](CC(C)C)C(=O)N[C@@H](CO)C(=O)N[C@H](C(=O)N[C@@H](CC(C)C)C(=O)N[C@@H](CCCCN)C(=O)N(C)CC(=O)N[C@H](CCC(=O)O)C(=O)N[C@H](CCC(=O)O)C(=O)O)C(C)C)C(C)C)NC(=O)[C@H](Cc2ccccc2)NC(=O)[C@H]([C@@H](C)CC)NC(=O)CNC(=O)[C@H]([C@@H](C)O)NC(=O)[C@H](Cc2ccc(O)cc2)NC(=O)[C@H]([C@@H](C)O)NC1=O [SEQ ID NO: 34, Ac-A(Nle)(R8)TYTGIF(S5)DQVLSVLK(Sarcosine)ee] (Ac-A[Nle][R8]TYTGIF[S5]DQVLSVLK[Sar][dE][dE]-OH; staple 3-10; C-terminus assumed)	LPL activation after pepsin treatment (Pepsin A): showed resistance to pepsin treatment
did reduce the efficacy	EK(R8)RDLYSK(S5)TAAFSTYFGIFTDQVLSVLKGEE (EK[R8]RDLYSK[S5]TAAFSTYFGIFTDQVLSVLKGEE; staple 3-10) [SEQ ID NO: 25]	
decreased peptide activity	Octanoic-(R8)TYTGIF(S5)DQVLSVLK(Sarcosine)eeee (Octanoyl-[R8]TYTGIF[S5]DQVLSVLK[Sar][dE][dE][dE][dE]; staple 1-8) [SEQ ID NO: 39]	
did not affect peptide efficacy	EK(R8)RDLYSK(S5)TAAFSTYTFIFTDQVLSVLKGEE (EK[R8]RDLYSK[S5]TAAFSTYTFIFTDQVLSVLKGEE; staple 3-10) [SEQ ID NO: 26]	
decreased LPL activation abilities	a(nle)(R8)TYTGIF(S5)DQVLSVLK(Sarcosine)ee ([dA][dNle][R8]TYTGIF[S5]DQVLSVLK[Sar][dE][dE]; staple 3-10) [SEQ ID NO: 35]	
	DYLKEVFEKLRDLYEKFTPAVSTYTGIFTDQVLSVLKGEE [SEQ ID NO: 15, control D6-PV peptide, reference compound]	triglycerides (apoC-II knockout mice): decreased triglycerides to a similar extent
decreased LPL activation abilities	a(nle)(R8)TYTGIF(S5)DQVLSVLk(Sarcosine)ee ([dA][dNle][R8]TYTGIF[S5]DQVLSVL[dK][Sar][dE][dE]; staple 3-10) [SEQ ID NO: 36]	
increased efficacy	STAAM(R8)TYTGIF(S5)DQVLSVLKGEE (STAAM[R8]TYTGIF[S5]DQVLSVLKGEE; staple 6-13) [SEQ ID NO: 5]	non-esterified fatty acids (NEFA) (apoC-II knockout mice): more effective than D6-PV; total cholesterol (apoC-II knockout mice): more effective than D6-PV at decreasing total cholesterol; triglycerides (apoC-II knockout mice): decreased triglycerides to a similar extent
	CCCC[C@H](NC(=O)[C@H](C)N)C(=O)N[C@]1(C)CCCCCCC=CCCCC2(CCCC=CCCCCCC[C@@](C)(C(=O)N[C@@H](CCCCN)C(=O)N(C)CC(=O)N[C@H](CCC(=O)O)C(=O)N[C@H](CCC(=O)O)C(=O)O)NC(=O)[C@H](C(C)C)NC(=O)[C@H](CO)NC(=O)[C@H](CC(C)C)NC(=O)[C@H](C(C)C)NC(=O)[C@H](CCC(N)=O)NC(=O)[C@H](CC(=O)O)NC2=O)NC(=O)[C@H](Cc2ccccc2)NC(=O)[C@H]([C@@H](C)CC)NC(=O)CNC(=O)[C@H]([C@@H](C)O)NC(=O)[C@H](Cc2ccc(O)cc2)NC(=O)[C@H]([C@@H](C)O)NC1=O (stereo partly drawn) [SEQ ID NO: 18, A(Nle)(R8)TYTGIF(B5)DQVLSV(S8)K(Sarcosine)ee-COOH]	LPL activation after pepsin treatment (Pepsin A): showed resistance to pepsin treatment
did not affect LPL activation	Octanoic -A(Nle)(R8)TYTGIF(S5)DQVLSVLK(Sarcosine)ee [SEQ ID NO: 37]	
	AMSTYTGIFTDQVLSVLKGEE [SEQ ID NO: 14, truncated ApoC-II peptide]	solubilization of DMPC vesicles [1]: did not
